What was measured:
Prothrombin [1] = molecular target: T1, Prothrombin (Homo sapiens, UniProt P00734); test: Inhibitory concentration against human alpha thrombin
Prothrombin [2] = molecular target: T1, Prothrombin; test: Binding affinity determined against human alpha thrombin
Serine protease 1 = molecular target: T2, Serine protease 1 (Bos taurus, UniProt P00760); test: Binding affinity against bovine trypsin
T2 sequence (P00760 whole entry): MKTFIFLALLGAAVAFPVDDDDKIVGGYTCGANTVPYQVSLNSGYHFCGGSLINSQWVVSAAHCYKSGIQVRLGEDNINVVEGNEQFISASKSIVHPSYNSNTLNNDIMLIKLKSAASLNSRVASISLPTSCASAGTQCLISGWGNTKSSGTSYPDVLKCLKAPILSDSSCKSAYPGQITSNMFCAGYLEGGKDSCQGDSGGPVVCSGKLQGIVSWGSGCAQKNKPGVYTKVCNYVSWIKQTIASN

Cavia porcellus = test: Percent change in blood pressure in guinea pig at 3 mg/kg dose
Homo sapiens = species on record: Homo sapiens; test: Inhibitory concentration against gel filtered platelet aggregation induced by alpha thrombin; format: functional

CN[C@H](Cc1ccccc1)C(=O)N1CCC[C@H]1C(=O)N[C@H](CCCN=C(N)N)C(=O)c1nc2ccccc2s1
IC50 (Prothrombin [1]): 80 nM
Ki (Prothrombin [2]): 17 nM

CC(=O)N1CCC[C@H]1C(=O)NC(CCCN=C(N)N)C(=O)c1nc2ccccc2s1 (some centres undefined)
IC50 (Prothrombin [1]): 14000 nM

NC(N)=NCCCC(NC=O)C(=O)c1nc2ccccc2s1 (centres undefined)
Ki (Serine protease 1): 1300 nM
IC50 (Prothrombin [1]): > 50000 nM

CN[C@H](Cc1ccccc1)C(=O)N1CCC[C@H]1C(=O)NC(CCCN=C(N)N)C(=O)c1nc2ccccc2o1 (some centres undefined)
Ki (Serine protease 1): 13 nM
IC50 (Prothrombin [1]): 110 nM
Ki (Prothrombin [2]): 6.2 nM

CCOC(=O)c1csc(C(=O)C(CCCN=C(N)N)NC(=O)[C@@H]2CCCN2C(=O)[C@@H](Cc2ccccc2)NC)n1 (some centres undefined)
Ki (Serine protease 1): 5.4 nM
IC50 (Prothrombin [1]): 120 nM
Ki (Prothrombin [2]): 4.5 nM

CN[C@H](Cc1ccc(F)cc1)C(=O)N1CCC[C@H]1C(=O)NC(CCCN=C(N)N)C(=O)c1nc2ccccc2s1 (some centres undefined)
Ki (Serine protease 1): 3 nM
IC50 (Prothrombin [1]): 15 nM
Ki (Prothrombin [2]): 0.12 nM

CN[C@H](Cc1ccccc1)C(=O)N1CCC[C@H]1C(=O)NC(CCCN=C(N)N)C(=O)c1nc2ccc(OC)cc2s1 (some centres undefined)
Ki (Serine protease 1): 2 nM
Delta BP (Cavia porcellus): -44%

CN[C@H](Cc1ccccc1)C(=O)N1CCC[C@H]1C(=O)N(C)[C@@H](CCCN=C(N)N)C(=O)c1nc2ccccc2s1
Ki (Serine protease 1): 5300 nM
IC50 (Prothrombin [1]): 21000 nM
Ki (Prothrombin [2]): 2100 nM

CN[C@H](Cc1ccccc1)C(=O)N1CCC[C@H]1C(=O)N[C@H](CCCCN)C(=O)c1nc2ccccc2s1
Ki (Serine protease 1): 20 nM
Delta BP (Cavia porcellus): -41%
Ki (Prothrombin [2]): 210 nM

CN[C@H](Cc1ccccc1)C(=O)N1CCC[C@H]1C(=O)NC(CCCN=C(N)N)C(=O)c1nc2ccc(O)cc2s1 (some centres undefined)
Delta BP (Cavia porcellus): -34%

CN[C@H](Cc1ccccc1)C(=O)N1CCC[C@H]1C(=O)NC(CCCN=C(N)N)C(=O)c1nc(C(=O)O)cs1 (some centres undefined)
Ki (Serine protease 1): 6 nM
IC50 (Prothrombin [1]): 112 nM
Ki (Prothrombin [2]): 9.1 nM

CN[C@H](Cc1ccccc1)C(=O)N1CCC[C@H]1C(=O)NC(CCCN=C(N)N)C(=O)c1nc(C(=O)NCCc2ccccc2)cs1 (some centres undefined)
Ki (Serine protease 1): 5 nM
IC50 (Prothrombin [1]): 830 nM
Ki (Prothrombin [2]): 120 nM

CN[C@H](Cc1ccccc1)C(=O)N1CCC[C@H]1C(=O)N[C@@H](CCCOC)C(=O)c1nc2ccccc2s1
Ki (Serine protease 1): 12000 nM
IC50 (Prothrombin [1]): 46000 nM
Ki (Prothrombin [2]): 3900 nM

CN[C@H](Cc1ccccc1)C(=O)N1CCC[C@H]1C(=O)N[C@H](Cc1cccc(C(=N)N)c1)C(=O)c1nc2ccccc2s1
Ki (Serine protease 1): 2600 nM
IC50 (Prothrombin [1]): 370 nM
Ki (Prothrombin [2]): 15 nM

CNC1(C(=O)N2CCC[C@H]2C(=O)NC(CCCN=C(N)N)C(=O)c2nc3ccccc3s2)CCCCC1 (some centres undefined)
Ki (Serine protease 1): 2.6 nM
IC50 (Prothrombin [1]): 490 nM
Ki (Prothrombin [2]): 73 nM

CN[C@H](Cc1ccccc1)C(=O)N1CCC[C@H]1C(=O)NC(CCCN=C(N)N)C(=O)c1cc2ccccc2s1 (some centres undefined)
Ki (Serine protease 1): 1300 nM
IC50 (Prothrombin [1]): 13000 nM
Ki (Prothrombin [2]): 2400 nM

NC(N)=NCCCC(NC(=O)[C@@H]1CCCN1)C(=O)c1nc2ccccc2s1 (some centres undefined)
Ki (Serine protease 1): 250 nM

CN[C@H](Cc1ccccc1)C(=O)N1CCC[C@H]1C(=O)N[C@@H](C[C@H]1CCCN(C(=N)N)C1)C(=O)c1nc2ccccc2s1
Ki (Serine protease 1): 210 nM
IC50 (Prothrombin [1]): 1000 nM
Ki (Prothrombin [2]): 99 nM

CCCC(CCC)C(=O)N[C@@H](CC(=O)OC)C(=O)N1CCC[C@H]1C(=O)N[C@@H](CCCNC(=N)N)C(=O)c1nc2ccccc2s1
Ki (Serine protease 1): 16 nM
IC50 (Homo sapiens): 16 nM
IC50 (Prothrombin [1]): 56 nM
Ki (Prothrombin [2]): 1.4 nM

CN[C@H](Cc1ccccc1)C(=O)N1CCC[C@H]1C(=O)N[C@H](C(=O)c1nc2ccccc2s1)[C@H]1CC[C@H](CN)CC1
Ki (Serine protease 1): 54 nM
IC50 (Prothrombin [1]): 17000 nM
Ki (Prothrombin [2]): 920 nM

CN[C@H](Cc1ccccc1)C(=O)N1CCC[C@H]1C(=O)N[C@@H](CCCNC(=N)N)C(=O)c1nccs1
Ki (Serine protease 1): 1.2 nM
IC50 (Prothrombin [1]): 19 nM

CNC(C(=O)N1CCC[C@H]1C(=O)NC(CCCN=C(N)N)C(=O)c1nc2ccccc2s1)(c1ccccc1)c1ccccc1 (some centres undefined)
Ki (Serine protease 1): 1.8 nM
IC50 (Prothrombin [1]): 15 nM
Ki (Prothrombin [2]): 2.1 nM

Cc1cccc(C(C)(C)CN(CC(=O)N[C@@H](CCCN=C(N)N)C(=O)c2nc3ccccc3s2)C(=O)CCc2ccccc2)c1
Ki (Serine protease 1): 57 nM
IC50 (Prothrombin [1]): 4000 nM
Ki (Prothrombin [2]): 400 nM

N=C(N)NCCCC(NC(=O)C1CCCC1)C(=O)c1nc2ccccc2s1 (centres undefined)
Ki (Serine protease 1): 30 nM

CN[C@H](Cc1c(F)c(F)c(F)c(F)c1F)C(=O)N1CCC[C@H]1C(=O)NC(CCCN=C(N)N)C(=O)c1nc2ccccc2s1 (some centres undefined)
Ki (Serine protease 1): 9.3 nM
IC50 (Prothrombin [1]): 150 nM
Ki (Prothrombin [2]): 3.8 nM

CN[C@H](Cc1ccccc1)C(=O)N1CCCC[C@H]1C(=O)NC(CCCN=C(N)N)C(=O)c1nc2ccccc2s1 (some centres undefined)
Ki (Serine protease 1): 1.8 nM
IC50 (Homo sapiens): 10 nM
Delta BP (Cavia porcellus): -45%
IC50 (Prothrombin [1]): 38 nM
Ki (Prothrombin [2]): 0.34 nM

CN[C@@H](C(=O)N1CCC[C@H]1C(=O)NC(CCCN=C(N)N)C(=O)c1nc2ccccc2s1)C1CCCCC1 (some centres undefined)
Ki (Serine protease 1): 1.2 nM
IC50 (Homo sapiens): 17 nM
Delta BP (Cavia porcellus): -21%
IC50 (Prothrombin [1]): 5.3 nM

CN[C@H](Cc1ccccc1)C(=O)N1CCC[C@H]1C(=O)N[C@@H](C[C@@H]1CCCN(C(=N)N)C1)C(=O)c1nc2ccccc2s1
Ki (Serine protease 1): 8 nM
IC50 (Prothrombin [1]): 51 nM
Ki (Prothrombin [2]): 1.6 nM

CC(=O)N[C@H](Cc1ccccc1)C(=O)N1CCC[C@H]1C(=O)NC(CCCN=C(N)N)C(=O)c1nc2ccccc2s1 (some centres undefined)
Ki (Serine protease 1): 2.4 nM
IC50 (Prothrombin [1]): 430 nM

CN[C@H](Cc1ccccc1)C(=O)N1CCC[C@H]1C(=O)N[C@@H](Cc1cccc(C(=N)N)c1)C(=O)c1nc2ccccc2s1
Ki (Serine protease 1): 1.8 nM
Ki (Prothrombin [2]): 0.99 nM

C[C@@](N)(Cc1ccccc1)C(=O)N1CCC[C@H]1C(=O)NC(CCCN=C(N)N)C(=O)c1nc2ccccc2s1 (some centres undefined)
Ki (Serine protease 1): 3.9 nM

CN[C@H](Cc1ccccc1)C(=O)N1CCC[C@H]1C(=O)NC(CCCN=C(N)N)C(=O)c1nc2ccccc2c(=O)[nH]1 (some centres undefined)
Ki (Serine protease 1): 8.3 nM
IC50 (Prothrombin [1]): 106 nM
Ki (Prothrombin [2]): 15 nM

CCS(=O)(=O)N[C@H](Cc1ccccc1)C(=O)N1CCC[C@H]1C(=O)NC(C(=O)c1nc2ccccc2s1)C1CCC(N)CC1 (some centres undefined)
Ki (Serine protease 1): 87 nM
IC50 (Homo sapiens): 120 nM
IC50 (Prothrombin [1]): 460 nM
Ki (Prothrombin [2]): 53 nM

CN[C@H](Cc1ccccc1)C(=O)N1CCC[C@H]1C(=O)NC(CCCN=C(N)N)C(=O)c1nc2ccccc2n1C (some centres undefined)
Ki (Serine protease 1): 290 nM
IC50 (Homo sapiens): 59 nM
Delta BP (Cavia porcellus): -30%
IC50 (Prothrombin [1]): 110 nM
Ki (Prothrombin [2]): 8.1 nM

CN[C@H](CC1CCCCC1)C(=O)N1CCC[C@H]1C(=O)NC(CCCN=C(N)N)C(=O)c1nc2ccccc2s1 (some centres undefined)
Ki (Serine protease 1): 3.9 nM
IC50 (Homo sapiens): 28 nM
Delta BP (Cavia porcellus): -49%

CN[C@@H](C(=O)N1CCC[C@H]1C(=O)NC(CCCN=C(N)N)C(=O)c1nc2ccccc2s1)c1ccccc1 (some centres undefined)
IC50 (Homo sapiens): 17 nM
Delta BP (Cavia porcellus): -63%
IC50 (Prothrombin [1]): 34 nM
Ki (Prothrombin [2]): 0.46 nM

CN[C@H](Cc1ccccc1)C(=O)N1CCC[C@H]1C(=O)NC(CCCN=C(N)N)C(=O)c1nc2ccc(CO)cc2s1 (some centres undefined)
Ki (Serine protease 1): 5.3 nM

CN[C@H](Cc1ccccc1)C(=O)N1CCC[C@H]1C(=O)N[C@@H](CCCCN)C(=O)c1nc2ccccc2s1
Ki (Serine protease 1): 4.3 nM
Delta BP (Cavia porcellus): -45%
IC50 (Prothrombin [1]): 650 nM
Ki (Prothrombin [2]): 38 nM

CN[C@H](Cc1ccccc1)C(=O)N1CCC[C@H]1C(=O)N[C@@H](CCCNC(=N)N)C(=O)c1ccccn1
IC50 (Prothrombin [1]): 930 nM

CN[C@H](Cc1ccccc1)C(=O)N1CCC[C@H]1C(=O)NC(CCCN=C(N)N)C(=O)c1nc2ccccc2[nH]1 (some centres undefined)
Ki (Serine protease 1): 12 nM
IC50 (Prothrombin [1]): 360 nM
Ki (Prothrombin [2]): 9.6 nM

CN[C@H](Cc1ccccc1)C(=O)N1CCC[C@H]1C(=O)N[C@H](C[C@H]1CCCN(C(=N)N)C1)C(=O)c1nc2ccccc2s1
Ki (Serine protease 1): 540 nM
Ki (Prothrombin [2]): 380 nM

CN[C@H](Cc1ccccc1)C(=O)N1CCC[C@H]1C(=O)NC(CCCN=C(N)N)C(=O)c1nc2ccc(F)cc2s1 (some centres undefined)
Ki (Serine protease 1): 1.5 nM

CN[C@H](Cc1ccccc1)C(=O)N1CCC[C@H]1C(=O)N[C@H](C=O)CCCN=C(N)N (stereo in doubt)
Ki (Prothrombin [2]): 18 nM

CN[C@H](Cc1ccccc1)C(=O)N1CCC[C@H]1C(=O)N[C@@H](CCCN=C(N)N)C(O)c1nc2ccccc2s1 (stereo in doubt; form 1)
Ki (Serine protease 1): 180000 nM
IC50 (Prothrombin [1]): 48000 nM
Ki (Prothrombin [2]): 5300 nM

CN[C@H](Cc1ccccc1)C(=O)N1CCC[C@H]1C(=O)N[C@@H](CCCN=C(N)N)C(O)c1nc2ccccc2s1 (stereo in doubt; form 2)
Ki (Serine protease 1): 250000 nM
IC50 (Prothrombin [1]): 17000 nM
Ki (Prothrombin [2]): 1600 nM
